How the values were obtained:
[1] = molecular target: T1, PDE4Bcat (Homo sapiens, UniProt Q07343); assay: Phosphodiesterase inhibitory activity, PDE4 ([3H]cAMP, recombinant enzyme); format: biochemical; conditions: 30° C., 20 minutes, read-out: IC50(μmol/L) PDE4
T1 construct: made in house; host or cells: Sf9 insect cells (baculovirus, Bac-to-Bac / Gateway)

[2] = system: histamine-induced bronchoconstriction in guinea pigs; assay: Histamine-induced bronchoconstriction reaction in guinea pigs; format: in vivo; conditions: guinea pig, measured 30 seconds after administration
Procedure: Guinea pigs were anesthetized with pentobarbital (30 mg/kg, i.p.). A cannula for intravenous administration was inserted into the left external jugular vein, a cannula for collecting blood and measuring blood pressure was inserted into the right internal carotid artery, and a tracheal cannula was inserted into the trachea. The guinea pigs were maintained on artificial respiration under the conditions of 60 times/min and 10 mL/kg/stroke. The airflow from the side branch of the tracheal cannula was measured by a bronchospasm transducer (Ugo-Basile) and recorded on a computer via Power Lab (ADInstruments Japan). The guinea pigs were immobilized with gallamine (10 mg/kg, i.v.), and histamine (12.5 μg/kg, i.v.) was administered at 10-minute intervals. After the histamine-induced bronchoconstriction became stable, the compound (0.3 mg/kg, i.v.) was administered. The histamine-induced bronchoconstriction reaction was measured 30 seconds after the compound administration to examine the bronchoconstriction inhibitory activity of the compound. The bronchoconstriction was recorded as the airflow value, and the results were represented by the ratio of the maximum value of the histamine- induced airflow 30 seconds after the administration to the maximum value of the airflow before the administration. Also, the test compounds dissolved in DMSO were used. Further, the indications were as follows: inhibition rate≧90% (+++), 90%>inhibition rate≧80% (++), and 80%>inhibition rate≧70% (+). [ ] means the results in the case of 0.1 mg/kg, i.v.

[3] = molecular target: T2, PDE3A catalytic domain (PDE3Acat) (Homo sapiens, UniProt Q14432); assay: Phosphodiesterase inhibitory activity, PDE3 ([3H]cAMP, recombinant enzyme); format: biochemical; conditions: 30° C., 20 minutes, read-out: IC50(μmol/L) PDE3
T2 construct: made in house; host or cells: Sf9 insect cells (baculovirus, Bac-to-Bac / Gateway)
T2 sequence (Q14432 674-1093 limits assumed): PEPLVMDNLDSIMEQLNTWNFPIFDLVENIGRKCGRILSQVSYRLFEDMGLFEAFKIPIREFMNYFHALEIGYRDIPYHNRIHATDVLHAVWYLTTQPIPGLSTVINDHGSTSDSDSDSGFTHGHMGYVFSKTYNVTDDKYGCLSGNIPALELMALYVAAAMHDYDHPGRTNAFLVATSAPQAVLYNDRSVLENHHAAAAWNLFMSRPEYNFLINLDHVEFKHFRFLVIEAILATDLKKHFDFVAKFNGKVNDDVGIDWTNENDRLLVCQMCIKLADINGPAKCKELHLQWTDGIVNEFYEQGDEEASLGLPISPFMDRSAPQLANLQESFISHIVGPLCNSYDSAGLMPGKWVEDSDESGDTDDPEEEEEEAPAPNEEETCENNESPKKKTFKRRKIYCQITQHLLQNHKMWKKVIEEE

[4] = Cavia porcellus, iv, 0.5 min, compound 0.3 mg/kg, i.v., read-out: Inhibition rate (histamine-induced bronchoconstriction)

T1 sequence (Q07343 330-659 limits assumed): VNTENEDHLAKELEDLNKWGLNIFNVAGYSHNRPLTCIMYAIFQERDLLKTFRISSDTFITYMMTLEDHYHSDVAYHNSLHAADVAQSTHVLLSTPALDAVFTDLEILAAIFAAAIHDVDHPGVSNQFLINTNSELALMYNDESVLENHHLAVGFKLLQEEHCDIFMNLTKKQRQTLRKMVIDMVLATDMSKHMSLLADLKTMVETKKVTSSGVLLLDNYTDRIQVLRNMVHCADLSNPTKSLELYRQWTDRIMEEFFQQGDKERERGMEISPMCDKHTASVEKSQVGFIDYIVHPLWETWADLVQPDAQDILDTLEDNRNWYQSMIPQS

SMILES | IC50 [1] [µmol/L] | Inhibition rate (histamine-induced bronchoconstriction) ([2]; compound 0.3 mg/kg, i.v.) | IC50 [3] [µmol/L] | inhibition in vivo at 0.3 mg/kg [2, 4] [%] | inhibition in vivo at 0.1 mg/kg ([2]; Cavia porcellus, iv, 0.5 min, compound 0.1 mg/kg, i.v. (values in [ ]), read-out: Inhibition rate (histamine-induced bronchoconstriction)) [%]
CCc1ccc2c(C3=NN(CCCCOc4ccc(C5=NNC(=O)CC5C)cc4)C(=O)CC3C)ccc(OC)c2n1 (single isomer, unassigned) [Example 342, 6-(2-Ethyl-8-methoxyquinolin-5-yl)-5-methyl-2-[4-[4-(4-methyl-6-oxo-1,4,5,6-tetrahydropyridazin-3-yl)phenoxy]butyl]-4,5-dihydro-2H-pyridazin-3-one] | 0.1 to 1 | +++ (inhibition rate≧90% (+++)) | < 0.1 | – | –
COc1ccc(C2=NN(CCCCOc3ccc(C4=NNC(=O)CC4C)cc3)C(=O)CC2C)c2ccc(C)nc12 (centres unmarked) [Example 267, 6-(8-Methoxy-2-methylquinolin-5-yl)-5-methyl-2-[4-[4-(4-methyl-6-oxo-1,4,5,6-tetrahydropyridazin-3-yl)phenoxy]butyl]-4,5-dihydro-2H-pyridazin-3-one] | < 0.1 | – | 0.1 to 1 | ≥ 90 | –
COc1ccc(C2=NN(CCCCOc3ccc(C4=NNC(=O)CC4C)cc3)C(=O)CC2C)c2ccc(C(C)C)nc12 (centres unmarked) [Example 269, 6-(8-Methoxy-2-isopropylquinolin-5-yl)-5-methyl-2-[4-[4-(4-methyl-6-oxo-1,4,5,6-tetrahydropyridazin-3-yl)phenoxy]butyl]-4,5-dihydro-2H-pyridazin-3-one] | 0.1 to 1 | – | < 0.1 | – | 80 to 90
COc1ccc(-c2ccc(=O)n(CCCCOc3ccc(C4=NNC(=O)CC4)cc3F)n2)c2ccc(C)nc12 [Example 272, 2-[4-[2-Fluoro-4-(6-oxo-1,4,5,6-tetrahydropyridazin-3-yl)phenoxy]butyl}-6-(8-methoxy-2-methylquinolin-5-yl)-2H-pyridazin-3-one] | < 0.1 | – | 0.1 to 1 | 70 to 80 | –
COc1ccc(-c2ccc(=O)n(CCCCOc3ccc(C4=NNC(=O)CC4C)c(F)c3F)n2)c2ccc(C)nc12 (centres unmarked) [Example 273, 2-[4-[2,3-Difluoro-4-(4-methyl-6-oxo-1,4,5,6-tetrahydropyridazin-3-yl)phenoxy]butyl]-6-(8-methoxy-2-methylquinolin-5-yl)-2H-pyridazin-3-one] | < 0.1 | – | < 0.1 | ≥ 90 | –
COc1ccc(-c2ccc(=O)n(CCCCOc3ccc(C4=NNC(=O)C4(C)C)c(F)c3F)n2)c2nc(C(F)(F)F)[nH]c12 [Example 277, 2-[4-[2,3-Difluoro-4-(4,4-dimethyl-5-oxo-4,5-dihydro-1H-pyrazol-3-yl)phenoxy]butyl]-6-(4-methoxy-2-trifluoromethyl-1H-benzimidazol-7-yl)-2H-pyridazin-3-one] | 1 to 10 | – | < 0.1 | 80 to 90 | –
COc1ccc(-c2ccc(=O)n(CCCCOc3ccc(C4=NNC(=O)CC4)c(F)c3F)n2)c2nc(C(F)(F)F)[nH]c12 [Example 278, 2-[4-[2,3-Difluoro-4-(6-oxo-1,4,5,6-tetrahydropyridazin-3-yl)phenoxy]butyl]-6-(4-methoxy-2-trifluoromethyl-1H-benzimidazol-7-yl)-2H-pyridazin-3-one] | 1 to 10 | – | < 0.1 | ≥ 90 | –
COc1ccc(-c2ccc(=O)n(CCCCOc3ccc(C4=NNC(=O)CC4C)c(F)c3F)n2)c2nc(C(F)(F)F)[nH]c12 (centres unmarked) [Example 279, 2-[4-[2,3-Difluoro-4-(4-methyl-6-oxo-1,4,5,6-tetrahydropyridazin-3-yl)phenoxy]butyl]-6-(4-methoxy-2-trifluoromethyl-1H-benzimidazol-7-yl)-2H-pyridazin-3-one] | 0.1 to 1 | – | < 0.1 | ≥ 90 | –
CCc1ccc2c(-c3ccc(=O)n(CCCCOc4ccc(C5=NNC(=O)CC5C)cc4F)n3)ccc(OC)c2n1 (centres unmarked) [Example 287, 6-(2-Ethyl-8-methoxyquinolin-5-yl)-2-[4-[2-fluoro-4-(4-methyl-6-oxo-1,4,5,6-tetrahydropyridazin-3-yl)phenoxy]butyl]-2H-pyridazin-3-one] | < 0.1 | – | < 0.1 | ≥ 90 | –
CCc1ccc2c(-c3ccc(=O)n(CCCCOc4ccc(C5=NNC(=O)CC5C)cc4OC)n3)ccc(OC)c2n1 (centres unmarked) [Example 288, 6-(2-Ethyl-8-methoxyquinolin-5-yl)-2-[4-[2-methoxy-4-(4-methyl-6-oxo-1,4,5,6-tetrahydropyridazin-3-yl)phenoxy]butyl]-2H-pyridazin-3-one] | 0.1 to 1 | – | 0.1 to 1 | 80 to 90 | –
CCc1ccc2c(-c3ccc(=O)n(CCCOc4ccc(C5=NNC(=O)C5(C)C)c(F)c4F)n3)ccc(OC)c2n1 [Example 327, 6-(2-Ethyl-8-methoxyquinolin-5-yl)-2-[3-[2,3-difluoro-4-(4,4-dimethyl-5-oxo-4,5-dihydro-1H-pyrazol-3-yl)phenoxy]propyl]-2H-pyridazin-3-one] | 0.1 to 1 | – | 1 to 10 | – | –
COc1ccc(-c2ccc(=O)n(CCCCOc3ccc(C4=NNC(=O)CC4C)c(F)c3F)n2)c2cc(C(F)(F)F)sc12 (centres unmarked) [Example 330, 2-[4-[2,3-Difluoro-4-(4-methyl-6-oxo-1,4,5,6-tetrahydropyridazin-3-yl)phenoxy]butyl]-6-(7-methoxy-2-trifluoromethylbenzo[b]thiophen-4-yl)-2H-pyridazin-3-one] | 1 to 10 | – | < 0.1 | – | –
COc1ccc(-c2ccc(=O)n(CCCCOc3ccc(C4=NNC(=O)CC4)c(F)c3F)n2)c2cc(C(F)(F)F)sc12 [Example 331, 2-[4-[2,3-Difluoro-4-(6-oxo-1,4,5,6-tetrahydropyridazin-3-yl)phenoxy]butyl]-6-(7-methoxy-2-trifluoromethylbenzo[b]thiophen-4-yl)-2H-pyridazin-3-one] | 1 to 10 | – | < 0.1 | – | –
COc1ccc(-c2ccc(=O)n(CCCCOc3ccc(C4=NNC(=O)C4(C)C)c(F)c3F)n2)c2cc(C(F)(F)F)sc12 [Example 332, 2-[4-[2,3-Difluoro-4-(4,4-dimethyl-5-oxo-4,5-dihydro-1H-pyrazol-3-yl)phenoxy]butyl]-6-(7-methoxy-2-trifluoromethylbenzo[b]thiophen-4-yl)-2H-pyridazin-3-one] | 1 to 10 | – | 0.1 to 1 | – | –
CCc1nc2c(OC)ccc(-c3ccc(=O)n(CCCCOc4ccc(C5=NNC(=O)CC5)c(F)c4F)n3)c2o1 [Example 333, 6-(2-Ethyl-4-methoxybenzooxazol-7-yl)-2-[4-[2,3-difluoro-4-(6-oxo-1,4,5,6-tetrahydropyridazin-3-yl)phenoxy]butyl]-2H-pyridazin-3-one] | 0.1 to 1 | – | < 0.1 | – | –
CCc1nc2c(OC)ccc(-c3ccc(=O)n(CCCCOc4ccc(C5=NNC(=O)CC5C)c(F)c4F)n3)c2o1 (centres unmarked) [Example 334, 6-(2-Ethyl-4-methoxybenzooxazol-7-yl)-2-[4-[2,3-difluoro-4-(4-methyl-6-oxo-1,4,5,6-tetrahydropyridazin-3-yl)phenoxy]butyl]-2H-pyridazin-3-one] | 0.1 to 1 | – | < 0.1 | – | –
CCc1nc2c(OC)ccc(-c3ccc(=O)n(CCCCOc4ccc(C5=NNC(=O)C5(C)C)c(F)c4F)n3)c2o1 [Example 335, 6-(2-Ethyl-4-methoxybenzooxazol-7-yl)-2-[4-[2,3-difluoro-4-(4,4-dimethyl-5-oxo-4,5-dihydro-1H-pyrazol-3-yl)phenoxy]butyl]-2H-pyridazin-3-one] | 0.1 to 1 | – | 0.1 to 1 | – | –
COc1ccc(-c2ccc(=O)n(CCCCOc3ccc(C4=NNC(=O)CC4C)c(F)c3F)n2)n2cc(C(F)(F)F)nc12 (centres unmarked) [Example 336, 2-[4-[2,3-Difluoro-4-(4-methyl-6-oxo-1,4,5,6-tetrahydropyridazin-3-yl)phenoxy]butyl]-6-(8-methoxy-2-trifluoromethylimidazo[1,2-a]pyridin-5-yl)-2H-pyridazin-3-one] | 0.1 to 1 | – | < 0.1 | – | –
COc1ccc(-c2ccc(=O)n(CCCCOc3ccc(C4=NNC(=O)CC4)c(F)c3F)n2)n2cc(C(F)(F)F)nc12 [Example 337, 2-[4-[2,3-Difluoro-4-(6-oxo-1,4,5,6-tetrahydropyridazin-3-yl)phenoxy]butyl]-6-(8-methoxy-2-trifluoromethylimidazo[1,2-a]pyridin-5-yl)-2H-pyridazin-3-one] | 0.1 to 1 | – | 0.1 to 1 | – | –
COc1ccc(-c2ccc(=O)n(CCCCOc3ccc(C4=NNC(=O)C4(C)C)c(F)c3F)n2)n2cc(C(F)(F)F)nc12 [Example 338, 2-[4-[2,3-Difluoro-4-(4,4-dimethyl-5-oxo-4,5-dihydro-1H-pyrazol-3-yl)phenoxy]butyl]-6-(8-methoxy-2-trifluoromethylimidazo[1,2-a]pyridin-5-yl)-2H-pyridazin-3-one] | 0.1 to 1 | – | 0.1 to 1 | – | –
